# Measurements reported in patent EP4789680A1, “NOVEL PACE4 INHIBITOR AND USE THEREOF IN ANTI-OSTEOARTHRITIS” (Inflamax Pharmaceuticals Limited, priority 2023, dated 2025).
# Where a SMILES comes first, the peptide text is derived from it. Where no end group is shown, it is not given here. [ ]: non-standard residue; d: D form. ξ: configuration not given here. Abu(1-amidino-4-piperidyl) = N=C(N)N1CCC(CC[C@H](N)C(=O)O)CC1; Phe(4-guanidino) = N=C(N)Nc1ccc(C[C@H](N)C(=O)O)cc1; Phe(4-CF3) = N[C@@H](Cc1ccc(C(F)(F)F)cc1)C(=O)O; dThr(3ξ) = CC(O)[C@@H](N)C(=O)O
# T1: PACE4 (Homo sapiens, UniProt P29122)
# T1 sequence (P29122 150-969): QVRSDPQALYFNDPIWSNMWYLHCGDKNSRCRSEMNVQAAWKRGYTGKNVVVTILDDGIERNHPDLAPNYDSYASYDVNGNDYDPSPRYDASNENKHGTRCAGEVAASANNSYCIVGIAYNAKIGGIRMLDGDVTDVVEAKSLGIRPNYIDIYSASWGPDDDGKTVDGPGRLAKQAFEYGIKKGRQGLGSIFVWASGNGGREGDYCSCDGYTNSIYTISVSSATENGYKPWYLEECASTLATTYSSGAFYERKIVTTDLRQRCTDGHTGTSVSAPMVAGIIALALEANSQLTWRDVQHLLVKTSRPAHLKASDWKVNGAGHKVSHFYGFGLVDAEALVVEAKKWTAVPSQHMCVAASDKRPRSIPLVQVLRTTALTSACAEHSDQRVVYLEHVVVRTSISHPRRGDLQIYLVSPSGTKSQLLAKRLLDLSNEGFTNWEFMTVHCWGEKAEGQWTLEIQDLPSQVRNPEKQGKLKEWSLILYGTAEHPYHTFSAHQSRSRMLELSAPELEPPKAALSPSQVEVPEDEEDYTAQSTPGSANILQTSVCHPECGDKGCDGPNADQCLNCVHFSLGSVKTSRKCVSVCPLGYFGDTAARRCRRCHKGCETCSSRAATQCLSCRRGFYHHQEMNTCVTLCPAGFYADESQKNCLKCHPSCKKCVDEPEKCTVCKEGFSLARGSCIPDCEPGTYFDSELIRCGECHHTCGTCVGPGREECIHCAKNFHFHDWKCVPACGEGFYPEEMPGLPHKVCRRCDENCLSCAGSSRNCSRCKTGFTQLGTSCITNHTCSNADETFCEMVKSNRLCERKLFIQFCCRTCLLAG
# T2: PACE4 (UniProt P29122 150-969, limits assumed)
# T2 sequence (looked up): T1 sequence (P29122 150-969)
# B1: Ac-dR-R-F-K-R-dT-NH2 (peptide)
# peptide: Ac-[dR]RFKR[dT]-NH2
# SMILES: CC(=O)N[C@H](CCCNC(=N)N)C(=O)N[C@@H](CCCNC(=N)N)C(=O)N[C@@H](Cc1ccccc1)C(=O)N[C@@H](CCCCN)C(=O)N[C@@H](CCCNC(=N)N)C(=O)N[C@@H](C(N)=O)[C@H](C)O
# B2: dP-dR-R-F(4-Guan)-K-R-dT-NH2 (peptide)
# peptide: [dP][dR]R[Phe(4-guanidino)]KR[dT]-NH2
# modifications: N-terminus assumed
# SMILES: C[C@H](O)[C@@H](NC(=O)[C@H](CCCNC(=N)N)NC(=O)[C@H](CCCCN)NC(=O)[C@H](Cc1ccc(NC(=N)N)cc1)NC(=O)[C@H](CCCNC(=N)N)NC(=O)[C@@H](CCCNC(=N)N)NC(=O)[C@H]1CCCN1)C(N)=O
# B3: Ac-R-R-F-K-R-dT-NH2 (peptide)
# peptide: Ac-RRFKR[dT]-NH2
# SMILES: CC(=O)N[C@@H](CCCNC(=N)N)C(=O)N[C@@H](CCCNC(=N)N)C(=O)N[C@@H](Cc1ccccc1)C(=O)N[C@@H](CCCCN)C(=O)N[C@@H](CCCNC(=N)N)C(=O)N[C@@H](C(N)=O)[C@H](C)O
# B4: Ac-R-F-K-R-dT-NH2 (peptide)
# peptide: Ac-RFKR[dT]-NH2
# SMILES: CC(=O)N[C@@H](CCCNC(=N)N)C(=O)N[C@@H](Cc1ccccc1)C(=O)N[C@@H](CCCCN)C(=O)N[C@@H](CCCNC(=N)N)C(=O)N[C@@H](C(N)=O)[C@H](C)O
# B5: Ac-R-F(4-CF3)-K-R-T-NH2 (peptide)
# peptide: Ac-R[Phe(4-CF3)]KRT-NH2
# SMILES: CC(=O)N[C@@H](CCCNC(=N)N)C(=O)N[C@@H](Cc1ccc(C(F)(F)F)cc1)C(=O)N[C@@H](CCCCN)C(=O)N[C@@H](CCCNC(=N)N)C(=O)N[C@H](C(N)=O)[C@@H](C)O
# B6: Ac-R-F(4-CF3)-K-R-dT-NH2 (peptide)
# peptide: Ac-R[Phe(4-CF3)]KR[dT]-NH2
# SMILES: CC(=O)N[C@@H](CCCNC(=N)N)C(=O)N[C@@H](Cc1ccc(C(F)(F)F)cc1)C(=O)N[C@@H](CCCCN)C(=O)N[C@@H](CCCNC(=N)N)C(=O)N[C@@H](C(N)=O)[C@H](C)O
# B7: dP-dR-R-F-K-R-dT-NH2 (peptide)
# peptide: [dP][dR]RFKR[dT]-NH2
# modifications: N-terminus assumed
# SMILES: C[C@H](O)[C@@H](NC(=O)[C@H](CCCNC(=N)N)NC(=O)[C@H](CCCCN)NC(=O)[C@H](Cc1ccccc1)NC(=O)[C@H](CCCNC(=N)N)NC(=O)[C@@H](CCCNC(=N)N)NC(=O)[C@H]1CCCN1)C(N)=O
# B8: P-dR-R-F-K-R-dT-NH2 (peptide)
# peptide: P[dR]RFKR[dT]-NH2
# modifications: N-terminus assumed
# SMILES: C[C@H](O)[C@@H](NC(=O)[C@H](CCCNC(=N)N)NC(=O)[C@H](CCCCN)NC(=O)[C@H](Cc1ccccc1)NC(=O)[C@H](CCCNC(=N)N)NC(=O)[C@@H](CCCNC(=N)N)NC(=O)[C@@H]1CCCN1)C(N)=O
# Target: T1, PACE4
# Test: PACE4 enzyme inhibition experiment (fluorogenic substrate, competitive inhibition)
# Assay type: biochemical
# Details: substrate pyroGlu-Arg-Val-Lys-Arg-methyl-coumaryl-7-amide 100 µM, pH 6.5, 37°C, 60 min
# Description: The PACE4 inhibitory peptides obtained from the above example were subjected to in vitro assay of PACE4 inhibitory effect. The specific steps were as follows: the PACE4 enzyme inhibition experiment was performed in a solution containing 20 mM Bis-Tis at pH 6.5, 1 mM CaCl2, and 1.8 mg/mL BSA. All assays were performed using pyroGlu-Arg-Val-Lys-Arg-methyl-coumaryl-7-amide (Bachem, CA) (100 µM) as the substrate. The assay was conducted at 37°C for 60 min. A Gemini EM 96-well fluorescence spectrometer (Molecular Devices, CA) (Ex: 370 nm, Em: 460 nm) was used. The PACE4 inhibitory peptide involved in the present patent was added to the test solution at different concentrations for competitive inhibition assay to determine the IC50 value of the peptide.
row,IC50 [nM],Molecule
1,70,C[C@H](O)[C@@H](NC(=O)[C@H](CCCNC(=N)N)NC(=O)[C@H](CCCCN)NC(=O)[C@H](Cc1ccccc1)NC(=O)[C@H](CCCNC(=N)N)NC(=O)[C@@H](CCCNC(=N)N)NC(=O)[C@H]1CCCN1)C(N)=O [dP-dR-R-F-K-R-dT-NH2] (H-[dP][dR]RFKR[dT]-NH2)
2,20,"C[C@H](O)[C@@H](NC(=O)[C@H](CCCNC(=N)N)NC(=O)[C@H](CCCCN)NC(=O)[C@H](Cc1ccc(C(F)(F)F)cc1)NC(=O)[C@H](CCCNC(=N)N)NC(=O)[C@@H](CCCNC(=N)N)NC(=O)[C@H]1CCCN1)C(N)=O [dP-dR-RF(4-CF3)-K-R-dT-NH2, dP-dR-R-F(4-CF3)-K-R-dT-NH2] (H-[dP][dR]R[Phe(4-CF3)]KR[dT]-NH2)"
3,90,CC(=O)N[C@@H](CCCNC(=N)N)C(=O)N[C@@H](CCCNC(=N)N)C(=O)N[C@@H](Cc1ccc(C(F)(F)F)cc1)C(=O)N[C@@H](CCCCN)C(=O)N[C@@H](CCCNC(=N)N)C(=O)N[C@@H](C(N)=O)[C@H](C)O [Ac-R-R-F(4-CF3)-K-R-dT-NH2] (Ac-RR[Phe(4-CF3)]KR[dT]-NH2)
4,20,C[C@H](O)[C@@H](NC(=O)[C@H](CCCNC(=N)N)NC(=O)[C@H](CCCCN)NC(=O)[C@H](Cc1ccccc1)NC(=O)[C@H](CCCNC(=N)N)NC(=O)[C@@H](CCCNC(=N)N)NC(=O)[C@@H]1CCCN1)C(N)=O [P-dR-R-F-K-R-dT-NH2] (H-P[dR]RFKR[dT]-NH2)
5,90,CC(=O)N[C@@H](CCCNC(=N)N)C(=O)N[C@@H](CCCNC(=N)N)C(=O)N[C@@H](CCC1CCN(C(=N)N)CC1)C(=O)N[C@@H](CCCCN)C(=O)N[C@@H](CCCNC(=N)N)C(=O)N[C@@H](C(N)=O)C(C)O (some centres unmarked) [Ac-R-R-A(4-Pip)-K-R-dT-NH2] (Ac-RR[Abu(1-amidino-4-piperidyl)]KR[dThr(3ξ)]-NH2)
6,20,C[C@H](O)[C@@H](NC(=O)[C@H](CCCNC(=N)N)NC(=O)[C@H](CCCCN)NC(=O)[C@H](Cc1ccc(C(F)(F)F)cc1)NC(=O)[C@H](CCCNC(=N)N)NC(=O)[C@@H](CCCNC(=N)N)NC(=O)[C@@H]1CCCN1)C(N)=O [P-dR-R-F(4-CF3)-K-R-dT-NH2] (H-P[dR]R[Phe(4-CF3)]KR[dT]-NH2)

# Tested on: traumatic osteoarthritis model
# Test: MMT surgery traumatic osteoarthritis model, test for therapeutic efficacy
# Assay type: in vivo, Sprague Dawley (SD) rats
# Details: compared to the OA group; intra-articular injection on day 3 and day 10 after MMT surgery; sacrificed day 14
# Description: In this example, a traumatic osteoarthritis model was established by performing a medial meniscus tear (MMT) surgery to verify the therapeutic effect of the PACE4 inhibitory peptides on OA. In the test for therapeutic efficacy, the injections were administered on day 3 and day 10 after the surgical modeling (i.e., a total of 2 administrations).
# Specifically, in the test for therapeutic efficacy, 24 Sprague Dawley (SD) rats were divided into 3 groups (including a control group, an OA modeling group (surgery group), and an OA modeling + therapeutic administration group (surgery group + drug intervention)), with 8 rats per group. For the OA modeling + therapeutic administration group, intra-articular injections were administered on day 3 and day 10 after MMT surgery. Rats in each group were sacrificed on day 14 after modeling, and joint tissues were collected. Each PACE4 inhibitory peptide was tested individually to determine the therapeutic effect of each PACE4 inhibitory peptide. Among them, the polypeptide Ac-R-F-K-R-NH2 (control molecule) was selected as a control example.
# Cartilage tissue was collected from each group as samples. The collected cartilage tissue samples were decalcified according to conventional procedures in the art, then embedded in paraffin, and sectioned at a thickness of 7 µm. Safranin O-fast green staining was performed, and the cartilage degeneration was assessed using OARSI scoring. In addition, TRAP staining was performed to determine the subchondral bone resorption in rats before and after MMT surgery and during treatment with the PACE4 inhibitory peptide.
row,Molecule,"OARSI score reduced, therapeutic test [%]"
1,CC(=O)N[C@H](CCCNC(=N)N)C(=O)N[C@@H](CCCNC(=N)N)C(=O)N[C@@H](Cc1ccc(NC(=N)N)cc1)C(=O)N[C@@H](CCCCN)C(=O)N[C@@H](CCCNC(=N)N)C(=O)N[C@@H](C(N)=O)[C@H](C)O [Ac-dR-R-F(4-Guan)-K-R-dT-NH2] (Ac-[dR]R[Phe(4-guanidino)]KR[dT]-NH2),38.5
2,CC(=O)N[C@H](CCCNC(=N)N)C(=O)N[C@@H](CCCNC(=N)N)C(=O)N[C@@H](Cc1ccc(C(F)(F)F)cc1)C(=O)N[C@@H](CCCCN)C(=O)N[C@@H](CCCNC(=N)N)C(=O)N[C@@H](C(N)=O)[C@H](C)O [Ac-dR-R-F(4-CF3)-K-R-dT-NH2] (Ac-[dR]R[Phe(4-CF3)]KR[dT]-NH2),34.6
3,CC(=O)N[C@H](CCCNC(=N)N)C(=O)N[C@@H](CCCNC(=N)N)C(=O)N[C@@H](Cc1ccccc1)C(=O)N[C@@H](CCCCN)C(=O)N[C@@H](CCCNC(=N)N)C(=O)N[C@@H](C(N)=O)[C@H](C)O [Ac-dR-R-F-K-R-dT-NH2] (Ac-[dR]RFKR[dT]-NH2),28

# Target: T2, PACE4
# Test: cell-based or functional assay
# Details: not given
row,"IC50 (µM), PACE4 enzyme inhibition, fluorogenic substrate pyroGlu-Arg-Val-Lys-Arg-methyl-coumaryl-7-amide [µM]",Molecule
1,0.19,B1
2,0.034,B2
3,0.46,B3
4,5,B4
5,0.74,B5
6,0.35,B6
7,0.07,B7
8,0.02,B8
